Laboratory results taken from patent US9145405B2, “Oxadiazole compound and preparation method thereof, pharmaceutical composition and use thereof” (SHANGHAI JIAO TONG UNIVERSITY, priority 2011, dated 2015).
≈ marks a conversion by molar mass, not a printed value. Where two headings read alike, the source gives them in different places.

Tests used:
Cox_B3 virus = test: Anti-Cox_B3 test: inhibition of cytopathic effect (CPE) in infected Vero cells, Reed-Muench; type: cell-based; conditions: Cox_B3 virus in Vero cells, CPE, Reed-Muench method; for IC50: read-out: IC50 (half-inhibitory concentration for viruses)
From the text: The present examples verifies experimental results of anti-Cox_B3 of the compounds 1-137of the present invention, Pleconaril, 3-[3,5-dimethyl-4-[5-(3-methy-1,2-oxazolyl)propoxy]phenyl]-5-(trifluonomethyl) -1,2,4-oxadiazole is used as positive control.

Vero cells = test: Toxicity (half toxic concentration) in the anti-Cox_B3 test on Vero cells; type: cell-based

Compound	IC50 (Cox_B3 virus)	TC50 (half of the toxic concentration) (Vero cells; Vero cells, Cox_B3)	IC50 (half-inhibitory concentration for viruses) (Cox_B3 virus)	TC50 (half of the toxic concentration) (Vero cells)
Cc1cc(-c2noc(C(F)(F)F)n2)cc(C)c1OCCSc1nnc(C)n1C [Compound 27, 3-[2-[2,6-dimethyl-4-[5-(trifluoromethyl)-1,2,4-oxadiazole-3-yl]phenoxyl]ethylthio]-4,5-dimethyl-4H-1,2,4-triazole]	0.07 mg/L (≈ 0.169 µM)	39.25 mg/L		
Cc1nnc(OCCOc2c(C)cc(-c3noc(C(F)(F)F)n3)cc2C)o1 [Compound 28, 3-[3,5-dimethyl-4-[2-[5-methyl-1,3,4-oxadiazole-2-oxy]ethoxyl]phenyl]-5-(trifluoromethyl)-1,2,4-oxadiazole]	0.11 mg/L (≈ 0.286 µM)	32.36 mg/L		
Cc1cc(-c2noc(C(F)(F)F)n2)cc(C)c1OCCOc1nnc(C(F)(F)F)s1 [Compound 30, 3-[3,5-dimethyl-4-[2-[5-trifluoromethyl-1,3,4-thiadiazole-2-oxy]ethoxyl]phenyl]-5-(trifluoromethyl)-1,2,4-oxadiazole]	0.08 mg/L (≈ 0.176 µM)	34.39 mg/L		
Cc1cc(-c2noc(C(F)(F)F)n2)cc(C)c1OCCOc1ncc(C(=O)O)c(O)n1 [Compound 32, 2-[2-[2,6-dimethyl-4-[5-(trifluoromethyl)-1,2,4-oxadiazole-3-yl]phenoxyl]ethoxyl]-4-hydroxyl-pyrimidine-5-carboxylic acid]	0.023 mg/L (≈ 0.0522 µM)	40.28 mg/L		
Cc1cc(-c2noc(C(F)(F)F)n2)cc(C)c1OCCOc1nccc(C(F)(F)F)n1 [Compound 33, 2-[2-[2,6-dimethyl-4-[5-(trifluoromethyl)-1,2,4-oxadiazole-3-yl]phenoxyl]ethoxyl]-4-(trifluoromethyl) pyrimidine]	0.12 mg/L (≈ 0.268 µM)	35.28 mg/L		
Cc1cc(-c2noc(C(F)(F)F)n2)cc(C)c1OCCSc1nccc(C(F)(F)F)n1 [Compound 34, 2-[2-[2,6-dimethyl-4-[5-(trifluoromethyl)-1,2,4-oxadiazole-3-yl]phenoxyl]ethylthio]-4-(trifluoromethyl) pyrimidine]	0.11 mg/L (≈ 0.237 µM)	33.28 mg/L		
Cc1cc(-c2noc(C(F)(F)F)n2)cc(C)c1OCCOC(C)(C)C [Compound 36, 3-[3,5-dimethyl-4-[(2-tert-butoxy)ethoxyl]phenyl]-5-(trifluoromethyl)-1,2,4-oxadiazole]	0.13 mg/L (≈ 0.363 µM)	40.12 mg/L		
Cc1ccc(OCCOc2c(C)cc(-c3noc(C(F)(F)F)n3)cc2C)c(F)c1 [Compound 39, 3-[3,5-dimethyl-4-[(2-fluoro-4-methylphenoxyl)ethoxyl]phenyl]-5-(trifluoromethyl)-1,2,4-oxadiazole]	0.056 mg/L (≈ 0.136 µM)	44.28 mg/L		
COc1ccc(OCCOc2c(C)cc(-c3noc(C(F)(F)F)n3)cc2C)c(F)c1 [Compound 40, 3-[3,5-dimethyl-4-[(2-fluoro-4-methoxyphenoxyl)ethoxyl]phenyl]-5-(trifluoromethyl)-1,2,4-oxadiazole]	0.044 mg/L (≈ 0.103 µM)	45.39 mg/L		
Cc1cc(-c2noc(C(F)(F)F)n2)cc(C)c1OCCOc1ccc([N+](=O)[O-])cc1F [Compound 41, 3-[3,5-dimethyl-4-[(2-fluoro-4-nitrophenoxyl)ethoxyl]phenyl]-5-(trifluoromethyl)-1,2,4-oxadiazole]	0.033 mg/L (≈ 0.0748 µM)	46.89 mg/L		
Cc1cc(-c2noc(C(F)(F)F)n2)cc(C)c1OCCOc1c(Cl)cccc1Cl [Compound 42, 3-[3,5-dimethyl-4-[(2,6-dichlorophenoxyl)ethoxyl]phenyl]-5-(trifluoromethyl)-1,2,4-oxadiazole]	0.033 mg/L (≈ 0.0738 µM)	36.89 mg/L		
Cc1cc(-c2noc(C(F)(F)F)n2)cc(C)c1OCCOc1ccc(Cl)cc1Cl [Compound 43, 3-[3,5-dimethyl-4-[(2,4-dichlorophenoxyl)ethoxyl]phenyl]-5-(trifluoromethyl)-1,2,4-oxadiazole]	0.044 mg/L (≈ 0.0984 µM)	35.66 mg/L		
CCON=Cc1ccc(OCCOc2c(C)cc(-c3noc(C(F)(F)F)n3)cc2C)cn1 [Compound 44, 6-[2,6-dimethyl-4-[(5-(trifluoromethyl)-1,2,4-oxadiazole-3-yl)phenoxyl]ethoxyl]pyridine-2-oxy-ethylketoxime]			0.078 mg/L	34.35 mg/L
COC(=O)c1cnc(OCCOc2c(C)cc(-c3noc(C(F)(F)F)n3)cc2C)c(F)c1 [Compound 49, 6-[2,6-dimethyl-4-[(5-(trifluoromethyl)-1,2,4-oxadiazole-3-yl)phenoxyl]ethoxyl]-5-fluoro-3-pyridinecarboxylate]			0.096 mg/L	35.36 mg/L
Cc1cc(-c2noc(C(F)(F)F)n2)cc(C)c1OCCOC(C)(C)C [Compound 90, 3-[3,5-dimethyl-4-[(2-tert-butoxy)ethoxyl]phenyl]-5-(trifluoromethyl)-1,2,4-oxadiazole]			0.15 mg/L	38.28 mg/L
COC(=O)c1cnc(OCCOc2c(C)cc(-c3noc(C)n3)cc2C)c(F)c1 [Compound 103]			0.07 mg/L	39.55 mg/L
Cc1nc(-c2ccc(OCCOc3c(C)cc(-c4noc(C(F)(F)F)n4)cc3C)cc2)no1 [Compound 111, 3-[3,5-dimethyl-4-[2-[4-(5-methyl-1,2,4-oxadiazole-3-yl)phenoxyl]ethoxyl]phenyl]-5-(trifluoromethyl)-1,2,4-oxadiazole]	0.051 mg/L (≈ 0.111 µM)	38.21 mg/L		
Cc1cc(-c2noc(C(F)(F)F)n2)cc(C)c1OCCOc1ccc(-c2noc(C(F)(F)F)n2)cc1 [Compound 112, 3-[3,5-dimethyl-4-[2-[4-[5-(trifluoromethyl)-1,2,4-oxadiazole-3-yl]phenoxyl]ethoxyl]phenyl]-5-(trifluoromethyl)-1,2,4-oxadiazole]	0.032 mg/L (≈ 0.0622 µM)	34.98 mg/L		
Cc1nc(-c2ccc(OCCOc3c(C)cc(-c4noc(C(F)(F)F)n4)cc3C)nc2)no1 [Compound 113, 2-[2-[2,6-dimethyl-4-[5-(trifluoromethyl)-1,2,4-oxadiazole-3-yl]phenoxyl]ethoxyl]-5-(5-methyl-1,2,4-oxadiazole-3-yl)-pyridine]	0.036 mg/L (≈ 0.078 µM)	35.22 mg/L		
Cc1cc(-c2noc(C(F)(F)F)n2)cc(C)c1OCCOc1ccc(-c2noc(C(F)(F)F)n2)cn1 [Compound 114, 2-[2-[2,6-dimethyl-4-[5-(trifluoromethyl)-1,2,4-oxadiazole-3-yl]phenoxyl]ethoxyl]-5-[5-(trifluoromethyl)-1,2,4-oxadiazole-3-yl]-pyridine]	0.038 mg/L (≈ 0.0737 µM)	36.32 mg/L		
Cc1nc(-c2cnc(OCCOc3c(C)cc(-c4noc(C(F)(F)F)n4)cc3C)c(F)c2)no1 [Compound 115, 2-[2-[2,6-dimethyl-4-[5-(trifluoromethyl)-1,2,4-oxadiazole-3-yl]phenoxyl]ethoxyl]-3-fluoro-5-(5-methyl-1,2,4-oxadiazole-3-yl)-pyridine]	0.037 mg/L (≈ 0.0772 µM)	37.55 mg/L		
Cc1cc(-c2noc(C(F)(F)F)n2)cc(C)c1OCCOc1ncc(-c2noc(C(F)(F)F)n2)cc1F [Compound 116, 2-[2-[2,6-dimethyl-4-[5-(trifluoromethyl)-1,2,4-oxadiazole-3-yl]phenoxyl]ethoxyl]-3-fluoro-5-[5-(trifluoromethyl)-1,2,4-oxadiazole-3-yl]-pyridine]	0.034 mg/L (≈ 0.0637 µM)	39.21 mg/L		
Cc1nc(-c2ccc(OCCCOc3c(C)cc(-c4noc(C(F)(F)F)n4)cc3C)cc2)no1 [Compound 117, 3-[3,5-dimethyl-4-[3-[4-(5-methyl-1,2,4-oxadiazole-3-yl]phenoxyl]propoxy]phenyl]-5-(trifluoromethyl)-1,2,4-oxadiazole]	0.033 mg/L (≈ 0.0696 µM)	33.28 mg/L		
Cc1cc(-c2noc(C(F)(F)F)n2)cc(C)c1OCCCOc1ccc(-c2noc(C(F)(F)F)n2)cc1 [Compound 118, 3-[3,5-dimethyl-4-[3-[4-[5-(trifluoromethyl)-1,2,4-oxadiazole-3-yl]phenoxyl]propoxy]phenyl]-5-(trifluoromethyl)-1,2,4-oxadiazole]	0.048 mg/L (≈ 0.0908 µM)	37.21 mg/L		
Cc1nc(-c2ccc(OCCCOc3c(C)cc(-c4noc(C(F)(F)F)n4)cc3C)nc2)no1 [Compound 119, 2-[3-[2,6-dimethyl-4-[5-(trifluoromethyl)-1,2,4-oxadiazole-3-yl]phenoxyl]propoxy]-5-(5-methyl-1,2,4-oxadiazole-3-yl]-pyridine]	0.042 mg/L (≈ 0.0883 µM)	36.28 mg/L		
Cc1nc(-c2cnc(OCCCOc3c(C)cc(-c4noc(C(F)(F)F)n4)cc3C)c(F)c2)no1 [Compound 121, 2-[3-[2,6-dimethyl-4-[5-(trifluoromethyl)-1,2,4-oxadiazole-3-yl]phenoxyl]propoxy]-3-fluoro-5-(5-methyl-1,2,4-oxadiazole-3-yl)-pyridine]	0.039 mg/L (≈ 0.079 µM)	36.17 mg/L		
